Drawing on patent US10487068B2, “Pyridazine derivatives as RORc modulators” (Genentech, Inc., priority 2015, dated 2019), this text covers IC50 for 29 compounds.

The target of the assay is T1, RORc ligand binding domain (Homo sapiens, UniProt P51449).
T1 sequence (P51449 269-508 limits assumed): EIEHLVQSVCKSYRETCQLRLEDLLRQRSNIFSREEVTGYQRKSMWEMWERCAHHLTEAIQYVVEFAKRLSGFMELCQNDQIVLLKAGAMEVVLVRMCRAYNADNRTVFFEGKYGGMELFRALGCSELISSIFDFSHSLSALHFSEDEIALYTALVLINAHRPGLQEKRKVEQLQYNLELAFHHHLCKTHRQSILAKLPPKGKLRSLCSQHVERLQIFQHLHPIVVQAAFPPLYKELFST
Description: In Vitro RORc Ligand Binding Assay. As to conditions: RORc IC50, radioligand 25-[3H]hydroxycholesterol 6 nM; 0.6 ug/mL RORc receptor; 3 h at 25° C.

As to `CC[C@H](O)c1n[nH]c(-c2cncc([C@@]34CC[C@@H](c5cc(-c6c(F)cccc6F)nnc53)C4(C)C)n2)n1` [Example 295, (S)-1-(5-(6-((5R,8S)-3-(2,6-difluorophenyl)-9,9-dimethyl-5,6,7,8-tetrahydro-5,8-methanocinnolin-8-yl)pyrazin-2-yl)-1H-1,2,4-triazol-3-yl)propan-1-ol], the IC50 came out at 15.2 nM.
`CC1(C)[C@H]2CC[C@]1(c1cncc(-c3nc(C(N)=O)co3)n1)c1nnc(-c3c(F)cccc3F)cc12` [Example 325, 2-(6-((5R,8S)-3-(2,6-difluorophenyl)-9,9-dimethyl-5,6,7,8-tetrahydro-5,8-methanocinnolin-8-yl)pyrazin-2-yl)oxazole-4-carboxamide] registered a half-maximal inhibitory concentration (IC50) of 6.7 nM.
`CC(C)(O)Cn1ccc(-c2cncc([C@@]34CC[C@@H](c5cc(-c6c(F)cccc6F)nnc53)C4(C)C)n2)n1` [Example 407, 1-(3-(6-((5R,8S)-3-(2,6-difluorophenyl)-9,9-dimethyl-5,6,7,8-tetrahydro-5,8-methanocinnolin-8-yl)pyrazin-2-yl)-1H-pyrazol-1-yl)-2-methylpropan-2-ol] had an IC50 of 7.6 nM.
`CC1(C)[C@H]2CC[C@]1(c1cncc(C(=O)NCC#N)n1)c1nnc(-c3c(F)cccc3F)cc12` [Example 92, N-(cyanomethyl)-6-((5R,8S)-3-(2,6-difluorophenyl)-9,9-dimethyl-5,6,7,8-tetrahydro-5,8-methanocinnolin-8-yl)pyrazine-2-carboxamide]: the IC50 was 20.6 nM.
Then `CC1(C)[C@H]2CC[C@]1(c1ccnc(-c3ccc(N)nc3)n1)c1nnc(-c3c(F)cccc3F)cc12` [Example 403], with 6.8 nM; and `CC1(C)[C@H]2CC[C@]1(c1cc(O)cc(=O)o1)c1nnc(-c3c(F)cccc3F)cc12` [Example 25, 6-((5R,8R)-3-(2,6-difluorophenyl)-9,9-dimethyl-5,6,7,8-tetrahydro-5,8-methanocinnolin-8-yl)-4-hydroxy-2H-pyran-2-one], with 2490 nM; and `CC1(C)[C@H]2CC[C@]1(c1ccnc(-n3cnc(N)n3)n1)c1nnc(-c3c(F)cccc3F)cc12` [Example 305], with 19.6 nM.
Then `CC1(C)[C@H]2CC[C@]1(c1cncc(-c3n[nH]c(=O)o3)n1)c1nnc(-c3c(F)cccc3F)cc12` [Example 148, 5-(6-((5R,8S)-3-(2,6-difluorophenyl)-9,9-dimethyl-5,6,7,8-tetrahydro-5,8-methanocinnolin-8-yl)pyrazin-2-yl)-1,3,4-oxadiazol-2(3H)-one], with 21 nM.
`CC1(C)[C@H]2CC[C@]1(c1cncc(CNC(=O)CO)n1)c1nnc(-c3c(F)cccc3F)cc12` [Example 129, N-((6-((5R,8S)-3-(2,6-difluorophenyl)-9,9-dimethyl-5,6,7,8-tetrahydro-5,8-methanocinnolin-8-yl)pyrazin-2-yl)methyl)-2-hydroxyacetamide] had a half-inhibitory concentration (IC50) of 56.7 nM.
Compound `C[C@H](O)CNC(=O)c1cncc([C@@]23CC[C@@H](c4cc(-c5ccccc5F)nnc42)C3(C)C)n1` [Example 126, 6-((5R,8S)-3-(2-fluorophenyl)-9,9-dimethyl-5,6,7,8-tetrahydro-5,8-methanocinnolin-8-yl)-N-((S)-2-hydroxypropyl)pyrazine-2-carboxamide] returned a half-maximal inhibitory concentration (IC50) of 45.6 nM.
Consider `CC1(C)[C@H]2CC[C@]1(c1cncc(-c3cnc(=O)[nH]c3)n1)c1nnc(-c3c(F)cccc3F)cc12` [Example 401, 5-(6-((5R,8S)-3-(2,6-difluorophenyl)-9,9-dimethyl-5,6,7,8-tetrahydro-5,8-methanocinnolin-8-yl)pyrazin-2-yl)pyrimidin-2(1H)-one], for which the concentration for half-maximal inhibition (IC50) is 14.7 nM.
Then `CC1(C)[C@@H]2CC[C@@]1(c1cccc(C(N)=O)n1)c1nnc(-c3c(F)cccc3F)cc12` [Example 48, 6-((5S,8R)-3-(2,6-difluorophenyl)-9,9-dimethyl-5,6,7,8-tetrahydro-5,8-methanocinnolin-8-yl)picolinamide], with 15.6 nM.
Compound `CC1(C)[C@H]2CC[C@]1(c1cncc(-c3ocnc3CO)n1)c1nnc(-c3c(F)cccc3F)cc12` [Example 142, (5-(6-((5R,8S)-3-(2,6-difluorophenyl)-9,9-dimethyl-5,6,7,8-tetrahydro-5,8-methanocinnolin-8-yl)pyrazin-2-yl)oxazol-4-yl)methanol] had a half-inhibitory concentration (IC50) of 17.2 nM.
With `C[C@H](O)Cc1n[nH]c(-c2cncc([C@@]34CC[C@@H](c5cc(-c6c(F)cccc6F)nnc53)C4(C)C)n2)n1` [Example 297, (S)-1-(5-(6-((5R,8S)-3-(2,6-difluorophenyl)-9,9-dimethyl-5,6,7,8-tetrahydro-5,8-methanocinnolin-8-yl)pyrazin-2-yl)-1H-1,2,4-triazol-3-yl)propan-2-ol], the IC50 came to 19.9 nM.
In turn, `CC1(C)[C@H]2CC[C@]1(c1ncc(O)cn1)c1nnc(-c3c(F)cccc3F)cc12` [Example 6, 2-((5R,8R)-3-(2,6-difluorophenyl)-9,9-dimethyl-5,6,7,8-tetrahydro-5,8-methanocinnolin-8-yl)pyrimidin-5-ol] displayed an IC50 of 115 nM.
Consider `CC(=O)NCc1cncc([C@@]23CC[C@@H](c4cc(-c5c(F)cccc5F)nnc42)C3(C)C)n1` [Example 133, N-((6-((5R,8S)-3-(2,6-difluorophenyl)-9,9-dimethyl-5,6,7,8-tetrahydro-5,8-methanocinnolin-8-yl)pyrazin-2-yl)methyl)acetamide], for which the IC50 was determined as 59.2 nM.
Under `CC1(C)[C@H]2CC[C@]1(c1ccnc(-c3ccnc(C(N)=O)c3)n1)c1nnc(-c3c(F)cccc3F)cc12` [Example 404] stands 9.2 nM; under `CC1(C)[C@H]2CC[C@]1(c1cncc(-c3nnc(CO)o3)n1)c1nnc(-c3c(F)cccc3F)cc12` [Example 84, (5-(6-((5R,8S)-3-(2,6-difluorophenyl)-9,9-dimethyl-5,6,7,8-tetrahydro-5,8-methanocinnolin-8-yl)pyrazin-2-yl)-1,3,4-oxadiazol-2-yl)methanol], 26.3 nM; under `C[C@@H](CO)NC(=O)c1cccc([C@@]23CC[C@@H](c4cc(-c5c(F)cccc5F)nnc42)C3(C)C)n1` [Example 55, 6-((5R,8S)-3-(2,6-difluorophenyl)-9,9-dimethyl-5,6,7,8-tetrahydro-5,8-methanocinnolin-8-yl)-N-((S)-1-hydroxypropan-2-yl)picolinamide], 21.4 nM.
The compound `CN(C)C(=O)c1ccnc([C@@]23CC[C@@H](c4cc(-c5c(F)cccc5F)nnc42)C3(C)C)c1` [Example 76] yielded an IC50 of 1470 nM.
In the case of `CC1(C)[C@H]2CC[C@]1(c1ccnc(N3CCO[C@@H](CO)C3)n1)c1nnc(-c3c(F)cccc3F)cc12` [Example 334], the IC50 was 5 nM.
Then `CC1(C)[C@H]2CC[C@]1(c1cncc(-c3cnn(CC(N)=O)c3)n1)c1nnc(-c3c(F)cccc3F)cc12` [Example 405, 2-(4-(6-((5R,8S)-3-(2,6-difluorophenyl)-9,9-dimethyl-5,6,7,8-tetrahydro-5,8-methanocinnolin-8-yl)pyrazin-2-yl)-1H-pyrazol-1-yl)acetamide], with 7.7 nM; and `Cc1oc(-c2cncc([C@@]34CC[C@@H](c5cc(-c6c(F)cccc6F)nnc53)C4(C)C)n2)nc1C(C)(C)O` [Example 397, 2-(2-(6-((5R,8S)-3-(2,6-difluorophenyl)-9,9-dimethyl-5,6,7,8-tetrahydro-5,8-methanocinnolin-8-yl)pyrazin-2-yl)-5-methyloxazol-4-yl)propan-2-ol], with 10.4 nM.
`C[C@@H](O)CNC(=O)c1cncc([C@@]23CC[C@@H](c4cc(-c5c(F)cccc5F)nnc42)C3(C)C)n1` [Example 49, 6-((5R,8S)-3-(2,6-difluorophenyl)-9,9-dimethyl-5,6,7,8-tetrahydro-5,8-methanocinnolin-8-yl)-N-((R)-2-hydroxypropyl)pyrazine-2-carboxamide] had a half-maximal inhibitory concentration (IC50) of 40.9 nM.
Turning to `CC1(C)[C@H]2CC[C@]1(c1cncc(-c3nc(C#N)co3)n1)c1nnc(-c3c(F)cccc3F)cc12` [Example 341, 2-(6-((5R,8S)-3-(2,6-difluorophenyl)-9,9-dimethyl-5,6,7,8-tetrahydro-5,8-methanocinnolin-8-yl)pyrazin-2-yl)oxazole-4-carbonitrile], the concentration for half-maximal inhibition (IC50) was found to be 3.4 nM.
The compound `Cc1ncc(C(=O)NCCO)nc1[C@@]12CC[C@@H](c3cc(-c4c(F)cccc4F)nnc31)C2(C)C` [Example 170, 6-((5R,8S)-3-(2,6-difluorophenyl)-9,9-dimethyl-5,6,7,8-tetrahydro-5,8-methanocinnolin-8-yl)-N-(2-hydroxyethyl)-5-methylpyrazine-2-carboxamide] returned a half-maximal inhibitory concentration (IC50) of 119 nM.
Under `CC(C)(O)c1cnc(-c2cncc([C@@]34CC[C@@H](c5cc(-c6c(F)cccc6F)nnc53)C4(C)C)n2)o1` [Example 342, 2-(2-(6-((5R,8S)-3-(2,6-difluorophenyl)-9,9-dimethyl-5,6,7,8-tetrahydro-5,8-methanocinnolin-8-yl)pyrazin-2-yl)oxazol-5-yl)propan-2-ol] stands 11.7 nM; under `CC1(C)[C@H]2CC[C@]1(c1cncc(-c3nnc(CO)[nH]3)n1)c1nnc(-c3c(F)cccc3F)cc12` [Example 121, (5-(6-((5R,8S)-3-(2,6-difluorophenyl)-9,9-dimethyl-5,6,7,8-tetrahydro-5,8-methanocinnolin-8-yl)pyrazin-2-yl)-4H-1,2,4-triazol-3-yl)methanol], 27.2 nM.
In turn, `C[C@H](O)CNC(=O)c1cncc([C@]23CC[C@H](c4cc(-c5c(F)cccc5F)nnc42)C3(C)C)n1` [Example 89, 6-((5S,8R)-3-(2,6-difluorophenyl)-9,9-dimethyl-5,6,7,8-tetrahydro-5,8-methanocinnolin-8-yl)-N-((S)-2-hydroxypropyl)pyrazine-2-carboxamide] yielded an IC50 of 12.8 nM.

In general, IC50 refers to the concentration that gives 50% inhibition.
